Measured values taken from US6767549B2, “Ionic polymers as anti-infective agents” (Genzyme Corporation, priority 1996, dated 2004).

Tested on: C. parvum
Experiment: In vitro activity against C. parvum infectivity in MDBK cell monolayers (indirect immunofluorescence assay)
Assay type: cell-based
Conditions: Cryptosporidium parvum, 2 mg/mL, positive control drug, 48 hours
Protocol: Confluent MDBK cell monolayers were grown on 16 well slides, and infected with 5×10^5 of C. parvum oocysts per well. Various dilutions of the test reagents in dimethylsulfoxide (DMSO) were added to the monolayers and cultures were incubated at 37° C.(8% CO2) for 48 hours. The level of C. parvum infections was determined and analysed by an indirect immunofluorescence (IF) assay at 48 hours. Anti-C. parvum sporozoite rabbit serum (1:1000) was used as the primary antibody, and fluorscein-conjugated anti rabbit goat serum (1:100) was used as the secondary antibody. Each dilution was tested in quadruple, and each assay was performed at least two times. The monolayers were methanol fixed and, after IF labelling, the number of parasites observed in 10 high power fields (HPF) per well in each of the four wells per dilution was counted, statistically analysed and compared with infected wells which contained DMSO only. Paromomycin was used as the positive control drug.

NC[C@@H]1O[C@H](O[C@H]2[C@@H](O)[C@H](O[C@@H]3[C@@H](O)[C@H](N)C[C@H](N)[C@H]3O[C@H]3O[C@H](CO)[C@@H](O)[C@H](O)[C@H]3N)O[C@@H]2CO)[C@H](N)[C@@H](O)[C@@H]1O [paromomycin]
inhibition at 2000 µg/mL: 79.4%
